Entries after “also recorded” stand apart in the source; their conditions may differ.
Legend:
[1] = test system: C57BL/KS.Cg-m Lepr^db+/+m mouse; test: Example 5: wound healing in non-diabetic mouse, subcutaneous route; assay type: in vivo
Procedure: The C57BL/KS.Cg-m Lepr^db+/+m mouse is the non-diabetic analog of the mouse used in the previous example.
On the first day of the assay, the animals were anesthetized (ketamine+xylazine, 100+10 mg/kg, i.m.). The back of the animal was shaved, the area was cleaned with disinfectant and the location of the wound was marked by means of a template to make its position the same in all the animals.
The wound was made by means of a circular incision with a diameter of approximately 1.5 cm, the skin of the mid-dorsal area being removed. A semipermeable dressing was subsequently placed on the wound. 1 mL/animal of physiological serum was administered by i.p. route after the intervention.
The wound area was calculated as the percentage of reduction thereof to evaluate the degree of curing thereof, by means of the standardized formula: […]
The measurement performed immediately after the intervention or incision was used as the baseline area. On the following day and for a total of 14 days, the assigned treatments were administered to the animals.
On the following day and for a total of 14 days, 10 ml/kg were administered to the animals by subcutaneous route in the back of the animal, avoiding the area of the wound.
The follow-up of the animals was performed up to a period of 21 days. The assessment was performed by means of digital photography of the wound and subsequent image analysis.
The animals were sacrificed on day 21 of the study and the area of the skin where the wound was caused was stored in formol to perform a histopathological evaluation (hematoxylin-eosin staining).
Each section was given a histological score in the grade 1 to grade V range, where I means uncured wound and V means completely epithelialized wound. The score is based on the degree of cell invasion, the formation of granulation tissue, vascularization and epithelialization.

[2] = test system: diabetic wistar rat; test: Example 3: percentage of ulcer healing in diabetic rats, SC route; assay type: in vivo; conditions: 0.22 mg/rat SC, one rat
Procedure: To perform the present embodiment, doses of 45 mg/kg of streptozocin (STZ) were administered by intramuscular route to make a batch of 10 rats diabetic (Andrades Ja et al. Engineering, expression, and renaturation of a collagen-targeted human bFGF fusion protein. Growth Factors. 2001; 18(4):261-75).
Male wistar rats with an average weight of 250 g per rat were used, to which a dose of 11.25 mg STZ per rat was administered by means of the intramuscular administration of 100 μL in the left paw of each rat.
Diabetes was induced in 6 of all the rats and 4 of them were left as a non-diabetic control, to test the result of the healing of chronic ulcers not caused by diabetes.
Sweetened water (350 mg/dL) was administered to the rats for three days and glucose measurements were performed with a glucometer every day to verify that the rats were indeed diabetized. For this reason, before the administration and at time 4 days after the administration of streptozocin, a drop of blood was extracted from the rat tail vein for the subsequent quantification of glycemia and see whether they were diabetic before starting the ulceration assay.
Once the rats are ready, 2 ulcers with a diameter of 1 cm each were made on them using a scalpel. […]

[3] = subcutaneous 14 days, sacrifice day 21, doses as in the 23rd table

In the case of Bemiparin, the “healing rate with respect to the control” value ([1]; subcutaneous 1000 IU Xa/kg) is reported as “does not improve the healing rate”, the “histopathological Grade” value [1, 3] is reported as “III (7-9 Moderately thick granulation tissue. It can vary from being dominated by inflammatory cells to greater presence of fibroblasts and collagen deposition, extensive neovascularization, minimum to moderate epithelial migration.)” and the “histopathological Score” value [1, 3] is reported as 8.
For `CO[C@H]1O[C@H](COS(=O)(=O)O)[C@@H](O[C@@H]2O[C@@H](C(=O)O)[C@@H](O[C@H]3O[C@H](COS(=O)(=O)O)[C@@H](O[C@@H]4O[C@H](C(=O)O)[C@@H](O[C@H]5O[C@H](COS(=O)(=O)O)[C@@H](O)[C@H](O)[C@H]5NS(=O)(=O)O)[C@H](O)[C@H]4O)[C@H](OS(=O)(=O)O)[C@H]3NS(=O)(=O)O)[C@H](O)[C@H]2OS(=O)(=O)O)[C@H](O)[C@H]1NS(=O)(=O)O` [Fondaparinux], the “percentage of healing of day 9 with respect to day 1, Average” value [2] was 50.22% and the “percentage of healing of day 9 with respect to day 1” value ([2]; single ulcers) was “A 50.99%; also recorded: B 49.55%”.
